Assay results reported in patent US12391648B2, “Pyridyloxy thioester derivative and preparation method therefor, herbicidal composition, and application” (Qingdao Kingagroot Chemical Compound Co., Ltd., priority 2018, dated 2025).

Tests used:
Experiment in all cases: Post-emergence test experiment (Table 3, 1000 g/ha)
Type in all cases: in vivo
Conditions in all cases: post-emergence spray, after 3 weeks, fresh weight inhibition
Abutilon theophrasti = system: Abutilon theophrasti
Source text: (§1) The activity level standard of harmful plants destruction (i. e. growth inhibition rate) is as follows: • Level 5: the growth inhibition rate is greater than 85%; • Level 4: the growth inhibition rate is equal to or greater than 60% and less than 85%; • Level 3: the growth inhibition rate is equal to or greater than 40% and less than 60%; • Level 2: the growth inhibition rate is equal to or greater than 20% and less than 40%; • Level 1: the growth inhibition rate is equal to or greater than 5% and less than 20%; • Level 0: the growth inhibition rate is less than 5%;
(§2) The above described growth inhibition rate is fresh weight inhibition rate.
(§3) Post-emergence test experiment: Monocotyledonous and dicotyledonous weed seeds and main crop seeds (i. e. wheat, corn, rice, soybean, cotton, oilseed, millet and sorghum.) were put into a plastic pot loaded with soil. Then covered with 0.5-2 cm soil, the seeds were allowed to grow in good greenhouse environment. The test plants were treated at 2-3 leaf stage 2 weeks after sowing. The test compounds of the invention were dissolved with acetone respectively, then added with tween-80, and using 1.5 liters per hectare of an emulsible concentrate of methyl oleate as a synergist, and diluted by certain amount of water to certain concentration. The solution was sprayed to the plants with a sprayer. Then the plants were cultured for 3 weeks in the greenhouse, and the experiment result of weed controlling effect after 3 weeks was listed in tables 3-4.

Monochoria vaginalis = system: Monochoria vaginalis
Source text: as §1, §2, §3

Galium spurium = system: Galium spurium
Source text: as §1, §2, §3

Compound | Activity level (growth inhibition rate) Abutilon theophrasti (Abutilon theophrasti) | Activity level (growth inhibition rate) Monochoria Vaginalis (Monochoria vaginalis) | Activity level (growth inhibition rate) Galium spurium (Galium spurium)
CCC(Oc1ncc(Cl)c(N)c1Cl)C(=O)SC (stereo not drawn) [Compound 23] | 5 (Level 5: the growth inhibition rate is greater than 85%) | 5 (Level 5: the growth inhibition rate is greater than 85%) | 5 (Level 5: the growth inhibition rate is greater than 85%)
CCC(Oc1nc(Cl)c(Cl)c(N)c1Cl)C(=O)SC (stereo not drawn) [Compound 24] | 5 (Level 5: the growth inhibition rate is greater than 85%) | 5 (Level 5: the growth inhibition rate is greater than 85%) | 5 (Level 5: the growth inhibition rate is greater than 85%)
CCC(Oc1nc(F)c(Cl)c(N)c1Cl)C(=O)SC (stereo not drawn) [Compound 25] | 5 (Level 5: the growth inhibition rate is greater than 85%) | 5 (Level 5: the growth inhibition rate is greater than 85%) | 5 (Level 5: the growth inhibition rate is greater than 85%)
CCCC(Oc1nc(F)c(Cl)c(N)c1Cl)C(=O)SC (stereo not drawn) [Compound 26] | 5 (Level 5: the growth inhibition rate is greater than 85%) | 5 (Level 5: the growth inhibition rate is greater than 85%) | 5 (Level 5: the growth inhibition rate is greater than 85%)
CSC(=O)C(Oc1nc(F)c(Cl)c(N)c1Cl)C(C)C (stereo not drawn) [Compound 27] | 5 (Level 5: the growth inhibition rate is greater than 85%) | 5 (Level 5: the growth inhibition rate is greater than 85%) | 5 (Level 5: the growth inhibition rate is greater than 85%)
CSC(=O)C(Oc1nc(F)c(Cl)c(N)c1Cl)C1CC1 (stereo not drawn) [Compound 28] | 5 (Level 5: the growth inhibition rate is greater than 85%) | 5 (Level 5: the growth inhibition rate is greater than 85%) | 5 (Level 5: the growth inhibition rate is greater than 85%)
COCC(Oc1nc(F)c(Cl)c(N)c1Cl)C(=O)SC (stereo not drawn) [Compound 29] | 5 (Level 5: the growth inhibition rate is greater than 85%) | 5 (Level 5: the growth inhibition rate is greater than 85%) | 5 (Level 5: the growth inhibition rate is greater than 85%)
COC(C)C(Oc1nc(F)c(Cl)c(N)c1Cl)C(=O)SC (stereo not drawn) [Compound 31] | 5 (Level 5: the growth inhibition rate is greater than 85%) | 5 (Level 5: the growth inhibition rate is greater than 85%) | 5 (Level 5: the growth inhibition rate is greater than 85%)
C=CC(Oc1nc(F)c(Cl)c(N)c1Cl)C(=O)SC (stereo not drawn) [Compound 32] | 5 (Level 5: the growth inhibition rate is greater than 85%) | 5 (Level 5: the growth inhibition rate is greater than 85%) | 5 (Level 5: the growth inhibition rate is greater than 85%)
C#CC(Oc1nc(F)c(Cl)c(N)c1Cl)C(=O)SC (stereo not drawn) [Compound 33] | 5 (Level 5: the growth inhibition rate is greater than 85%) | 5 (Level 5: the growth inhibition rate is greater than 85%) | 5 (Level 5: the growth inhibition rate is greater than 85%)
